Experiment [1] relates to S. aureus Col8A(Meth^S)(lac^-). In words: In vitro MIC, agar dilution. It counts as cell-based. The following applies: Staphylococcus aureus; S. aureus Col8A(Meth^S)(lac^-); read-out: minimum inhibitory concentration (MIC). In outline: (§1)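 Two-fold dilutions (128 to ≤0.25 μg/mL, in duplicate) were poured into Mueller-Hinton agar. Log-phase broth cultures were spot-inoculated at about 10^4 cfu per spot and incubated 35-36°C for 16-20 hours; the MIC was the lowest concentration inhibiting growth. Col is a high-level PBP2a producer; Col 8A is its isogenic PBP2a-lacking partner.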

Experiment [2] has as its system S. aureus Col(Meth^R)(lac^-). In words: In vitro MIC, agar dilution. The experiment is classed as cell-based. Particulars: Staphylococcus aureus, read-out: minimum inhibitory concentration (MIC). In outline:
as §1

The subject of experiment [3] is S. aureus strain ATCC 13709 (methicillin-susceptible). The experiment can be described thus: Murine model for lethal bacteremic peritonitis. It counts as in vivo, female Swiss-Webster mice. Particulars: Staphylococcus aureus, ATCC13709, SC, 72 h; for responders at 0.3125 mg/kg / responders at 0.625 mg/kg / responders at 2.5 mg/kg / responders at 5 mg/kg: read-out: Survivors; for responders at 1.25 mg/kg: read-out: Survivors (converted); for ED50: two equal doses, IP challenge, read-out: ED50. The method in brief:
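Female Swiss-Webster mice were challenged IP with an LD100 inoculum in 7% hog gastric mucin, then given test drug subcutaneously in twofold increments (0.01–512 mg/kg) as two equal doses at challenge and 2 h later, 10 mice per group. Survival was scored at 72 h; PD50 (total mg/kg) was derived by probit.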

The subject of the next experiment is E. coli ATCC 25992. The experiment can be described thus: In vitro MIC, agar dilution. The experiment is classed as cell-based. Particulars: Escherichia coli, ATCC25992, read-out: minimum inhibitory concentration (MIC). In outline: (§2)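 Strains were spotted at roughly 10^4 cfu onto drug-containing Mueller-Hinton agar. MIC was read as the lowest inhibitory concentration after overnight incubation at 35-36 °C.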

In a further experiment the test system is E. faecium VanA(Van^R). The experiment can be described thus: In vitro MIC, agar dilution. Particulars: Enterococcus faecium, read-out: minimum inhibitory concentration (MIC). The experiment is classed as cell-based. In outline:
as §2
For orientation: In agar dilution the substance is mixed into plates at graded concentrations.

The next experiment concerns S. aureus ATCC 29213. The experiment can be described thus: In vitro MIC, agar dilution. The following applies: Staphylococcus aureus, ATCC29213, read-out: minimum inhibitory concentration (MIC). It counts as cell-based. The method in brief: as §2
The next experiment relates to E. faecium ATCC 35667. In words: In vitro MIC, agar dilution. The following applies: Enterococcus faecium, ATCC35667, read-out: minimum inhibitory concentration (MIC). The experiment is classed as cell-based. The method in brief: as §2
In experiment [4] the test system is S. aureus PC1(Meth^S)(lac^+). The experiment can be described thus: In vitro MIC, agar dilution. It counts as cell-based. The following applies: Staphylococcus aureus, read-out: minimum inhibitory concentration (MIC). In outline: as §2
The test system of another experiment is P. aeruginosa ATCC 27853. In words: In vitro MIC, agar dilution. It counts as cell-based. Particulars: Pseudomonas aeruginosa, ATCC27853, read-out: minimum inhibitory concentration (MIC). The method in brief:
as §2

In experiment [5] the test system is S. aureus ATCC 13709(Meth^S). The experiment can be described thus: In vitro MIC, agar dilution. It counts as cell-based. Particulars: Staphylococcus aureus, ATCC13709, S. aureus ATCC 13709(Meth^S); read-out: minimum inhibitory concentration (MIC). The method in brief: as §2
In a further experiment the test system is E. faecalis ATCC 29212. In words: In vitro MIC, agar dilution. The following applies: Enterococcus faecalis, ATCC29212, read-out: minimum inhibitory concentration (MIC). It counts as cell-based. In outline:
as §2

Experiment [6] concerns S. haemolyticus 05(Meth^R). In words: In vitro MIC, agar dilution. The experiment is classed as cell-based. The following applies: Staphylococcus haemolyticus, read-out: minimum inhibitory concentration (MIC). The method in brief: as §2
For experiment [7], the system named is S. aureus ATCC 33593(Meth^R). The experiment can be described thus: In vitro MIC, agar dilution. It counts as cell-based. Particulars: Staphylococcus aureus, ATCC33593, read-out: minimum inhibitory concentration (MIC). In outline:
as §2

The test system of the next experiment is E. faecalis VanB(Van^R). The experiment can be described thus: In vitro MIC, agar dilution. The experiment is classed as cell-based. The following applies: Enterococcus faecalis, read-out: minimum inhibitory concentration (MIC). In outline:
as §2

For experiment [8], the system named is S. aureus 76(Meth^R)(lac^+). The experiment can be described thus: In vitro MIC, agar dilution. It counts as cell-based. Particulars: Staphylococcus aureus, read-out: minimum inhibitory concentration (MIC). The method in brief: as §2
Experiment [9] concerns S. aureus Spain #356(Meth^R). In words: In vitro MIC, agar dilution. It counts as cell-based. Particulars: Staphylococcus aureus, read-out: minimum inhibitory concentration (MIC). The method in brief:
as §2

The subject of another experiment is E. faecium A491(Amp^R). The experiment can be described thus: In vitro MIC, agar dilution. The experiment is classed as cell-based. The following applies: Enterococcus faecium, read-out: minimum inhibitory concentration (MIC). In outline: as §2

Structures can show the parent of a compound that is named as a salt.

By ED50 is commonly meant the dose that gives a 50% effect, or the effect in half of the subjects.

Regarding `NCCSc1cnccc1SC1=C(C(=O)O)N2C(=O)[C@@H](NC(=O)/C(=N\O)c3nc(N)sc3Cl)[C@H]2SC1` [Cmpd 30, (7R)-7-[(Z)-2-(2-amino-5-chlorothiazol-4-yl)-2-(hydroxyimino)acetamido]-3-(3-aminoethylthiopyrid-4-ylthio)-3-cephem-4-carboxylate, trifluoroacetic acid salt], the MIC in [1] stood at 0.13 mg/L; in experiment [2] it was 0.5 mg/L; in the experiment with E. coli ATCC 25992, 8 mg/L; with E. faecium VanA(Van^R), 1 mg/L; in the experiment on S. aureus ATCC 29213, 0.25 mg/L; with E. faecium ATCC 35667, 0.5 mg/L. In addition, the MIC in experiment [4] is no more than 0.25 mg/L; in the experiment with P. aeruginosa ATCC 27853, greater than 32 mg/L; in [5] it was no more than 0.25 mg/L; in the experiment with E. faecalis ATCC 29212, no more than 0.06 mg/L; in [6], 1 mg/L; in [7] it was 1 mg/L. Also, the MIC in the experiment with E. faecalis VanB(Van^R) was no more than 0.06 mg/L; in experiment [8], 2 mg/L; in [9], 1 mg/L; in the experiment on E. faecium A491(Amp^R) it was 8 mg/L. The responders at 0.3125 mg/kg in experiment [3] was determined as 0%. The responders at 0.625 mg/kg in experiment [3] turned out to be 20%. Also, in experiment [3], the responders at 1.25 mg/kg is 40%. Moreover, the responders at 2.5 mg/kg in experiment [3] is 100%. Moreover, in experiment [3], the responders at 5 mg/kg was found to be 100%. Moreover, the ED50 in experiment [3] is 1.14 mg/kg.
Take `NCC(O)CSCc1cnccc1SC1=C(C(=O)O)N2C(=O)[C@@H](NC(=O)/C(=N\O)c3nc(N)sc3Cl)[C@H]2SC1` (stereo partly drawn) [Cmpd 32, (7R)-7-[(Z)-2-(2-amino-5-chlorothiazol-4-yl)-2-(hydroxyimino)acetamido]-3-[3-(3-amino-2-hydroxyprop-1-ylthiomethyl)pyrid-4-ylthio]-3-cephem-4-carboxylate, trifluoroacetic acid salt]: the MIC is 0.25 mg/L in [1]; 1 mg/L in experiment [2]; 8 mg/L with E. coli ATCC 25992; 1 mg/L in the experiment on E. faecium VanA(Van^R); 0.25 mg/L with S. aureus ATCC 29213; 0.5 mg/L in the experiment with E. faecium ATCC 35667. Moreover, the MIC in [4] is 0.5 mg/L; with P. aeruginosa ATCC 27853, greater than 32 mg/L; in experiment [5], 0.13 mg/L; in the experiment on E. faecalis ATCC 29212, no more than 0.06 mg/L; in experiment [6], 4 mg/L; in [7] it was 2 mg/L. Besides, the MIC turned out to be 0.13 mg/L in the experiment on E. faecalis VanB(Van^R), 2 mg/L in [8], 2 mg/L in experiment [9] and 8 mg/L in the experiment with E. faecium A491(Amp^R). In addition, the responders at 0.3125 mg/kg in experiment [3] stood at 0%. For the same compound, the responders at 0.625 mg/kg in experiment [3] is 10%. For the same compound, the responders at 1.25 mg/kg in [3] is 50%. Moreover, the responders at 2.5 mg/kg in [3] was 50%. In experiment [3], the responders at 5 mg/kg amounted to 80%. Moreover, in experiment [3], the ED50 was determined as 2 mg/kg.
Turning to `CN(C)C(=O)[C@@H](N)CSCc1cnccc1SC1=C(C(=O)O)N2C(=O)[C@@H](NC(=O)/C(=N\O)c3nc(N)sc3Cl)[C@H]2SC1` [Cmpd 58, (7R)-7-[(Z)-2-(2-amino-5-chlorothiazol-4-yl)-2-(hydroxyimino)acetamido]-3-(3-(2R-2-N,N-dimethylcarboxamido-2-aminoethylthiomethyl)pyrid-4-ylthio)-3-cephem-4-carboxylate, trifluoroacetic acid salt], the MIC was found to be 0.5 mg/L in experiment [1]; 4 mg/L in [2]; 8 mg/L with E. coli ATCC 25992; 2 mg/L with E. faecium VanA(Van^R); 0.5 mg/L in the experiment on S. aureus ATCC 29213; 1 mg/L with E. faecium ATCC 35667. Also, the MIC is 1 mg/L in [4]; greater than 32 mg/L with P. aeruginosa ATCC 27853; 0.5 mg/L in experiment [5]; 0.5 mg/L with E. faecalis ATCC 29212; 4 mg/L in experiment [6]; 2 mg/L in experiment [7]. Moreover, the MIC stood at 0.5 mg/L with E. faecalis VanB(Van^R), 4 mg/L in experiment [8], 4 mg/L in [9] and 16 mg/L with E. faecium A491(Amp^R). In experiment [3], the responders at 0.3125 mg/kg was found to be 10%. Also, in [3], the responders at 0.625 mg/kg was 10%. Also, the responders at 1.25 mg/kg in experiment [3] is 20%. Besides, in [3], the responders at 2.5 mg/kg was 50%. Moreover, the responders at 5 mg/kg in experiment [3] was 50%. Further, the median effective dose (ED50) in [3] was 4.1 mg/kg.

The values are drawn from US6087355A, “Cephalosporin antibiotics” (Microcide Pharmaceuticals, Inc., priority 1996, dated 2000).
